Experimental data from ChEMBL document CHEMBL1127438, “Substituted (S)-phenylpiperidines and rigid congeners as preferential dopamine autoreceptor antagonists: synthesis and structure-activity relationships” (J Med Chem, 1994).
pKi: −log10 of the molar value.

Legend:
[1] = target: T1, D(2) dopamine receptor (Rattus norvegicus, UniProt P61169); assay: Tested for affinity against striatal dopamine autoreceptor (DA) D2 receptors using [3H]spiperone as radioligand in rats.
[2] = system: Rattus norvegicus; assay: Evaluated for DOPA accumulation in nonhabituated rats at 100 umol/kg of subcuteneous dose in rat striatum; type: functional
[3] = system: Rattus norvegicus; assay: Evaluated for biochemical levels of DOPAC in nonpretreated habituated rats for subcuteneous dose of 100 micro mol/kg in rat striatum; type: functional
[4] = system: Rattus norvegicus; assay: Effect (60 min after administration of 200 (micro mol/kg) subcuteneous dose on DA release in brain dialysis model of rat; type: functional
[5] = target: T2, D(2) dopamine receptor (Homo sapiens, UniProt P14416); assay: biochemical
T2 sequence (P14416 whole entry): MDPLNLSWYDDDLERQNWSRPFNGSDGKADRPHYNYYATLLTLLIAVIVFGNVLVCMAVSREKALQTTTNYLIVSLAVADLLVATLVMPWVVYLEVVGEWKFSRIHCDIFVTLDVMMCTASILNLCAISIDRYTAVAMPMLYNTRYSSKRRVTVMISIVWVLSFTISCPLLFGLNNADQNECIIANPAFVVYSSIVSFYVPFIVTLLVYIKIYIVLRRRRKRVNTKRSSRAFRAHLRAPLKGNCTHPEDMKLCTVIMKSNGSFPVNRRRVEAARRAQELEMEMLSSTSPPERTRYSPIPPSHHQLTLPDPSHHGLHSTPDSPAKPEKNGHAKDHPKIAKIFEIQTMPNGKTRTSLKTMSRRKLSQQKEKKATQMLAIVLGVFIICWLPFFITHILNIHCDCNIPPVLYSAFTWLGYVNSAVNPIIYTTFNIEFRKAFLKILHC
Description: Affinity against recombinant dopamine receptor (DA) D2 expressed in CHO-K1 cells, using [3H]-spiperone as radioligand

[6] = target: T3, D(3) dopamine receptor (Homo sapiens, UniProt P35462); assay: Tested for in vitro binding affinity against cloned mammalian dopamine D3 receptor, expressed in CHO-K1 cells, using [3H]spiperone as radioligand; type: cell-based
T3 sequence (P35462 whole entry): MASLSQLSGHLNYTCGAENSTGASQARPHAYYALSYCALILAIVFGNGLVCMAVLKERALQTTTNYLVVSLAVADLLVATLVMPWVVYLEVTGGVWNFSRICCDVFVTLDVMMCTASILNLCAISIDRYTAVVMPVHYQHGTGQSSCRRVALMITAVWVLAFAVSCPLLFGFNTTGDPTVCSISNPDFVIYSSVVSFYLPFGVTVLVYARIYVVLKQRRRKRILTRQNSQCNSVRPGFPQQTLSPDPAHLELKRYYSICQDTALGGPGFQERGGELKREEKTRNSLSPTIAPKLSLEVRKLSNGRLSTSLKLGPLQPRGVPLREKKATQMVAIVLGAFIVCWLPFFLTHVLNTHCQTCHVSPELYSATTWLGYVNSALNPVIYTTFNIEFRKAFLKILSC

[7] = system: Rattus norvegicus; assay: Evaluated for DOPAC level in nonpretreated habituated rats after subcuteneous dose of 100 micro mol/kg in rat striatum; type: functional
[8] = system: Rattus norvegicus; assay: Effect of (60 min after administration of 200 (uM/kg) subcuteneous dose on DA release in brain dialysis model of rat striatum; Values expressed as percent of saline controls; type: functional
[9] = system: Rattus norvegicus; assay: Evaluated biochemically in nonpretreated habituated rats for (100 uM/kg) subcuteneous dose, Value expressed as locomotor activity (LMA); type: functional
[10] = target: T1, D(2) dopamine receptor
Description: Affinity against striatal dopamine D2 receptors using [3H]spiperone as radioligand in rats.

[11] = target: T2, D(2) dopamine receptor; assay: biochemical; remark: listed apart in the source
Description: In vitro binding affinity against cloned mammalian dopamine D2 autoreceptor, expressed in CHO-K1 cells, using [3H]U-86170 as radioligand

[12] = target: Dopamine receptor; assay: Tested for in vitro binding affinity against cloned mammalian dopamine autoreceptor (DA) receptors expressed in CHO-K1 cells using [3H]U-86170 as radioligand; type: cell-based
[13] = target: T3, D(3) dopamine receptor; assay: Tested for in vitro binding affinity against cloned mammalian dopamine autoreceptor (DA) receptors expressed in CHO-K1 cells [3H]-spiperone as radioligand; type: cell-based
[14] = system: Rattus norvegicus; assay: Evaluated for locomotor activity in nonpretreated habituated rats in 100 umol/kg of subcuteneous dose; type: functional; set-up: unit not given here
[15] = system: Rattus norvegicus; assay: Evaluated for DOPA accumulation (DOPAacc) level in nonhabituated rats after subcuteneous dose (100 uM/kg) in rat striatum; type: functional
[16] = system: Rattus norvegicus; assay: Evaluated biochemically in nonhabituated rats for (100 umol/kg) subcuteneous dose, Value expressed as locomotor activity (LMA); type: functional
[17] = system: Rattus norvegicus; assay: Evaluated biochemically in reserpine-pretreated habituated rats for (100 umol/kg) subcuteneous dose in rat striatum (DOPAacc), Value expressed as counts/30 min; type: functional
[18] = system: Rattus norvegicus; assay: Tested in vivo for its ability to displace DA receptor agonist (Di-Pr-5,6-ADTN) from rat striatal binding sites at 0.25 uM/Kg sc. dose (after subtraction of cerebellum levels); type: functional
[19] = system: Rattus norvegicus; assay: Evaluated biochemically in reserpine-pretreated habituated rats for (100 umol/kg) subcuteneous dose, Value expressed as locomotor activity (LMA); type: functional
[20] = organism: Rattus norvegicus; assay: Tested in vio for concomitant ability to antagonize the locomotor activity of rat induced by Di-Pr-5,6-ADTN, Value expressed as locomotor activity (LMA), % of control; type: functional; set-up: scale not given: the % may be the effect or the level left

T1 sequence (P61169 whole entry): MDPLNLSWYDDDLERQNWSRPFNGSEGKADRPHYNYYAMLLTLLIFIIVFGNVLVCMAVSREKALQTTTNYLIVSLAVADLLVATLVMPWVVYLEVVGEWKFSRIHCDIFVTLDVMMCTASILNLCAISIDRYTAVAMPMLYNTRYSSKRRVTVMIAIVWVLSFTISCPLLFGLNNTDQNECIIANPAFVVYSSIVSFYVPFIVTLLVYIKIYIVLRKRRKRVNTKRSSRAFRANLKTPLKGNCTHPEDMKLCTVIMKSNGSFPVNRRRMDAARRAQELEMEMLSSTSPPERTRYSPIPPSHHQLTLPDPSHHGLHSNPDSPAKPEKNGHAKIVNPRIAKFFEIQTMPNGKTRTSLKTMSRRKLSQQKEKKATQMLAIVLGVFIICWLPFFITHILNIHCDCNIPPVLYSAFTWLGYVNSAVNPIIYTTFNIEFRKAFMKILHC

| pKi [5] | pKi [6] | pKi [10] | pKi [11] | Compound | Activity [7] [%] | Activity [8] | Control [9] [%] | Activity [15] | Locomotor activity (% of control) [16] [%] | further results |
| --- | --- | --- | --- | --- | --- | --- | --- | --- | --- | --- |
| < 6.66 |  |  |  | CCN1CCC[C@@H](c2cccc(OS(=O)(=O)C(F)(F)F)c2)C1 |  |  |  |  |  | pKi [1]: 5.93; Activity [2]: 286%; Activity [3]: 300%; Activity [4]: 120% |
| < 6.66 | 7.11 | 6.12 | 6.87 | CCCN1CCC[C@@H](c2cccc(-c3ccsc3)c2)C1 | 88 | 106% | 229 |  |  |  |
| 7.22 | 7.44 | 7.10 | 7.54 | N#Cc1cccc([C@@H]2CCCN(CCCc3ccccc3)C2)c1 | 280 |  | 484 |  |  |  |
| < 6.66 |  |  |  | CCCN1CCC[C@@H](c2ccc(OS(=O)(=O)C(F)(F)F)c(OS(=O)(=O)C(F)(F)F)c2)C1 |  |  |  |  |  | Ki [12]: 1100 nM; pKi [13]: 6.47; Activity [3]: 96%; LMA [14]: 36 |
| < 6.66 | < 5.70 |  |  | CCCN1CCC[C@@H](c2cccc(NS(=O)(=O)C(F)(F)F)c2)C1 | 91 |  | 305 |  |  |  |
| < 6.66 | 7.23 | 6.98 | 7.66 | N#Cc1cccc([C@@H]2CCCN(CCc3ccccc3)C2)c1 |  |  | 510 | 176% | 120 |  |
| < 6.66 | < 5.89 | < 4.82 | < 5.73 | CCCN1CCC[C@@H](c2cccc(C(N)=O)c2)C1 | 114 |  | 203 |  |  | Activity [17]: 97% |
| < 6.66 | 5.88 | 5.20 | 6.35 | CCCN1CCC[C@@H](c2cccc(S(C)(=O)=O)c2)C1 | 250 | 293% | 368 | 319% | 135 | Activity [17]: 95%; Control [18]: 45%; Control [19]: 10%; Control [20]: 101% |

The next lines start with the molecule.

| Compound | pKi [5] | pKi [6] | pKi [10] | pKi [11] | Activity [7] [%] | Activity [8] | Control [9] [%] | Activity [15] | Locomotor activity (% of control) [16] [%] | further results |
| --- | --- | --- | --- | --- | --- | --- | --- | --- | --- | --- |
| C=CCN1CCC[C@@H](c2cccc(C#N)c2)C1 | < 6.66 | 6.18 | 5.72 | 6.60 |  | 522% |  | 257% | 143 | Activity [17]: 85%; Control [18]: 59%; Control [19]: 3%; Control [20]: 46% |
| CN1CCC[C@@H](c2cccc(C#N)c2)C1 | < 6.66 | 5.75 | 5.08 | 5.98 | 174 |  |  | 215% | 79 |  |
| CC(C)N1CCC[C@@H](c2cccc(C#N)c2)C1 | < 6.66 | 6.57 | 6.14 | 6.97 |  |  | 366 | 301% | 102 |  |
| CCCN[C@@H]1CCc2c(OC)cccc2[C@@H]1C |  |  |  |  | 346 |  | 354 |  |  |  |
| CCCN1CCCC2c3cccc(OS(=O)(=O)C(F)(F)F)c3CCC21 (stereo in doubt; 45) |  |  |  |  |  |  |  |  |  | Ki [12]: 744 nM; pKi [13]: 6.23; pKi [1]: < 6.34; Activity [3]: 94%; LMA [14]: 266 |
| CCN1CCC[C@@H](c2cccc(C#N)c2)C1 | < 6.66 | 6.29 | 5.63 | 6.63 | 264 | 212% | 351 | 318% | 113 |  |
| CCCN1CCC[C@@H](c2cccc(C)c2)C1 | < 6.66 |  |  |  |  |  |  |  |  | Ki [12]: 430 nM; pKi [13]: 6.24; pKi [1]: 6.03 |
| CCCN1CCC[C@@H](c2cccc(O)c2)C1 [PRECLAMOL] |  |  |  |  | 203 | 190 | 119 | 141 | 40 | Activity [17]: 25%; Control [19]: 12% |
| CCCN1CCC[C@@H](c2cccc(S(=O)(=O)N(C)C)c2)C1 |  | 6.77 | 5.47 |  | 355 | 220% | 548 |  |  |  |
